Source: PubChem BioAssay (NCI)
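Dose response: 5 concentrations. Exposure: 48 h. Format: 96-well plates. Endpoint: linear interpolation; highest concentration if not reached. TGI: concentration producing complete growth inhibition.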

Assays:
Experiment in all cases: DTP human tumour cell line panel, 48 h
[1] = test system: MALME-3M melanoma
[2] = test system: OVCAR-3 ovarian
[3] = test system: U251 CNS
[4] = test system: HT29 colon
[5] = test system: HCT-116 colon
[6] = test system: SF-539 CNS
[7] = test system: LOX IMVI melanoma
[8] = test system: PC-3 prostate
[9] = test system: OVCAR-4 ovarian
[10] = test system: CAKI-1 renal
[11] = test system: SF-295 CNS
[12] = test system: SF-268 CNS
[13] = test system: HOP-92 NSCLC
[14] = test system: 786-0 renal
[15] = test system: RXF 393 renal
[16] = test system: HOP-62 NSCLC
[17] = test system: SNB-75 CNS
[18] = test system: NCI-H23 lung
[19] = test system: SK-MEL-28 melanoma
[20] = test system: SR leukemia
[21] = test system: KM12 colon
[22] = test system: A498 renal
[23] = test system: UO-31 renal
[24] = test system: RPMI-8226 leukemia
[25] = test system: CCRF-CEM leukemia
[26] = test system: M14 melanoma
[27] = test system: SN12C renal
[28] = test system: UACC-257 melanoma
[29] = test system: K-562 leukemia
[30] = test system: HL-60(TB) leukemia
[31] = test system: COLO 205 colon
[32] = test system: SNB-19 CNS
[33] = test system: EKVX NSCLC
[34] = test system: IGROV1 ovarian
[35] = test system: SW-620 colon
[36] = test system: MDA-MB-435
[37] = test system: MDA-N
[38] = test system: NCI-H226 lung
[39] = test system: MOLT-4 leukemia
[40] = test system: A549 NSCLC
[41] = test system: NCI-H460 lung
[42] = test system: T-47D breast
[43] = test system: TK-10 renal
[44] = test system: NCI/ADR-RES ovarian
[45] = test system: SK-OV-3 ovarian
[46] = test system: UACC-62 melanoma
[47] = test system: HS 578T breast
[48] = test system: DU-145 prostate
[49] = test system: MCF7 breast
[50] = test system: OVCAR-8 ovarian
[51] = test system: HCT-15 colon
[52] = test system: MDA-MB-231 breast

Measured: TGI

BrC(=C(c1ccc(OC2CCCCO2)cc1)c1ccc(OC2CCCCO2)cc1)c1ccccc1 (configuration not stated)
> 100 µM: all assays above
